Laboratory results: ChEMBL document CHEMBL5537169, “Structure-Activity Relationships and Discovery of (S)-6-Isopropyl-2-methoxy-3-(3-methoxypropoxy)-10-oxo-5,10-dihydro-6H-pyrido[1,2-h][1,7]naphthyridine-9-carboxylic Acid (AB-452), a Novel Orally Available HBV RNA Destabilizer” (J Med Chem, 2024)
pEC50, pIC50: −log10 of the molar value. In brackets after ≈: the same amount, converted by molar mass.

Key:
[1] = Half life in Beagle dog at 2 mg/kg,iv measured at 0.083 to 24 hrs post administration by LC-MS/MS analysis; type: ADME, organism-based, Canis lupus familiaris; conditions: in vivo, time 0.083-24 hrs; for half-life: Beagle
[2] = Clearance in CD-1 mouse liver microsomes at 0.3 uM pre-incubated for 10 mins followed by NADPH addition incubated for 60 mins by LC-MS/MS analysis; type: ADME, Microsome; conditions: time 70 min, read-out: CLH
Cytochrome P450 2C19 = Cytochrome P450 2C19 (Homo sapiens, UniProt P33261); assay: Reversible inhibition of CYP2C19 in human liver microsomes using S-mephenytoin as substrate pre-incubated for 30 mins followed by NADPH addition and measured after 10 mins by LC-MS/MS analysis; type: ADME, Microsome
[3] = Half life in CD-1 mouse at 10 mg/kg,po measured at 0.083 to 24 hrs post administration by LC-MS/MS analysis; type: ADME, organism-based; conditions: in vivo, time 0.083-24 hrs
[4] = AUCinfinity in Beagle dog at 10 mg/kg,po measured at 0.083 to 24 hrs post administration by LC-MS/MS analysis; type: ADME, organism-based, Canis lupus familiaris; conditions: in vivo, time 0.083-24 hrs
[5] = Clearance in human liver microsomes at 0.3 uM pre-incubated for 10 mins followed by NADPH addition incubated for 60 mins by LC-MS/MS analysis; type: ADME, Microsome; conditions: time 70 min, read-out: CLH
[6] = Cardiotoxicity in Langendorff-perfused New Zealand White rabbit heart assessed as decrease in left ventricular contractility at 10 uM incubated for 45 mins by ECG analysis; type: toxicity, tissue-based, Oryctolagus cuniculus; parameters: scale not given: the % may be the effect or the level left; conditions: 0.75 h
[7] = Cmax in CD-1 mouse at 10 mg/kg,po measured at 0.083 to 24 hrs post administration by LC-MS/MS analysis; type: ADME, organism-based; conditions: in vivo, time 0.083-24 hrs
Cytochrome P450 1A2 = target: T1, Cytochrome P450 1A2 (Homo sapiens, UniProt P05177); assay: Reversible inhibition of CYP1A2 in human liver microsomes using phenacetin as substrate pre-incubated for 30 mins followed by NADPH addition and measured after 10 mins by LC-MS/MS analysis; type: ADME, Microsome
T1 sequence (P05177 whole entry): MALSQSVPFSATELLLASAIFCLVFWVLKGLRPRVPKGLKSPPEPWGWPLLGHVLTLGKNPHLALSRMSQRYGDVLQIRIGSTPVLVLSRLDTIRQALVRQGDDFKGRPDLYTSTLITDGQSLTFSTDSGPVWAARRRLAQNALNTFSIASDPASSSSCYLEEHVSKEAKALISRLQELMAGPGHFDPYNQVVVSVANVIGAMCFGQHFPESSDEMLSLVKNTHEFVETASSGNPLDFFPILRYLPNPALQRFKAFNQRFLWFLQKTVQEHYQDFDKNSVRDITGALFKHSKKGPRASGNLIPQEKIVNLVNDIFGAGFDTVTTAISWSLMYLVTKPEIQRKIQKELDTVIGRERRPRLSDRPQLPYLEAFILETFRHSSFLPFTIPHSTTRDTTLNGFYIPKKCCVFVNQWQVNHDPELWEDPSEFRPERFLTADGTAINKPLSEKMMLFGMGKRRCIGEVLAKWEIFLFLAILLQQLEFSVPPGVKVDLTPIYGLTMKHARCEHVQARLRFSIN

Hepatitis B virus = assay: Antiviral activity against HBV infected in human HepG2.2.15 cells assessed as inhibition of HBsAg level incubated for 6 days by microplate-based chemiluminescence immunoassay; type: functional, organism-based; conditions: HepG2 2.2.15, 144 h
[8] = Protein binding in human plasma assessed as fraction unbound at 2 uM incubated for 6 hrs by equilibrium dialysis based LC-MS/MS analysis; type: ADME, cell-free
[9] = Cmax in Beagle dog at 2 mg/kg,iv measured at 0.083 to 24 hrs post administration by LC-MS/MS analysis; type: ADME, organism-based, Canis lupus familiaris; conditions: in vivo, time 0.083-24 hrs
[10] = Apparent volume of distribution at steady state in Beagle dog at 2 mg/kg,iv measured at 0.083 to 24 hrs post administration by LC-MS/MS analysis; type: ADME, organism-based, Canis lupus familiaris; conditions: in vivo, time 0.083-24 hrs; for Vd: Beagle, read-out: Vdss(app)
[11] = Cardiotoxicity in Langendorff-perfused New Zealand White rabbit heart assessed as decrease in left ventricular pressure at 10 uM incubated for 45 mins by ECG analysis; type: toxicity, tissue-based, Oryctolagus cuniculus; parameters: scale not given: the % may be the effect or the level left; conditions: 0.75 h
[12] = Oral bioavailability in Beagle dog at 10 mg/kg measured at 0.083 to 24 hrs by LC-MS/MS analysis; type: ADME, organism-based, Canis lupus familiaris; conditions: in vivo, time 0.083-24 hrs
[13] = Kinetic solubility of compound in PBS at pH 7.4 incubated for 24 hrs by UPLC-UV analysis; type: physicochemical; conditions: read-out: Kinetic_solubility
[14] = Clearance in CD-1 mouse at 2 mg/kg,iv measured at 0.083 to 24 hrs post administration by LC-MS/MS analysis; type: ADME, organism-based; conditions: in vivo, time 0.083-24 hrs
[15] = Protein binding in mouse plasma assessed as fraction unbound at 2 uM incubated for 6 hrs by equilibrium dialysis based LC-MS/MS analysis; type: ADME, cell-free
[16] = AUCinfinity in Sprague-Dawley rat at 10 mg/kg,po measured at 0.083 to 24 hrs post administration by LC-MS/MS analysis; type: ADME, organism-based; conditions: in vivo, time 0.083-24 hrs; for AUC(0-inf): Sprague-Dawley
Cytochrome P450 2B6 = target: T2, Cytochrome P450 2B6 (Homo sapiens, UniProt P20813); assay: Reversible inhibition of CYP2B6 in human liver microsomes using bupropion as substrate pre-incubated for 30 mins followed by NADPH addition and measured after 10 mins by LC-MS/MS analysis; type: ADME, Microsome
T2 sequence (P20813 whole entry): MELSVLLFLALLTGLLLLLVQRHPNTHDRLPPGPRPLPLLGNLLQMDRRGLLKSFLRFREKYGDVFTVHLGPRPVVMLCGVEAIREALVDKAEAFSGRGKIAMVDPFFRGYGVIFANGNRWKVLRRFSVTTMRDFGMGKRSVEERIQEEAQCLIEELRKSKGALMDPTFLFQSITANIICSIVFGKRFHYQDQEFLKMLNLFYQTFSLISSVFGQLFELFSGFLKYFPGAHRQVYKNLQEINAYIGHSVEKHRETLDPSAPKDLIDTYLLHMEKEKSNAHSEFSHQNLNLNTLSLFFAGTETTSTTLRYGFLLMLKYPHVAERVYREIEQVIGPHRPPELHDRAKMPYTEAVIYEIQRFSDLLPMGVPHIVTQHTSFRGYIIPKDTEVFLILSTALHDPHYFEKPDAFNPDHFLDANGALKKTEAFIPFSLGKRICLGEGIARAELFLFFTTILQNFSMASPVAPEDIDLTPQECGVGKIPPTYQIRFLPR

[17] = Drug accumulation in Beagle dog plasma assessed as fold change in drug uptake at 10 mg/kg,po measured at 0.083 to 24 hrs post administration by LC-MS/MS analysis; type: ADME, organism-based, Canis lupus familiaris; conditions: in vivo, time 0.083-24 hrs
[18] = Oral bioavailability in Sprague-Dawley rat at 10 mg/kg measured at 0.083 to 24 hrs by LC-MS/MS analysis; type: ADME, organism-based; conditions: in vivo, time 0.083-24 hrs; for bioavailability: Sprague-Dawley
[19] = Cmax in Beagle dog at 10 mg/kg,po measured at 0.083 to 24 hrs post administration by LC-MS/MS analysis; type: ADME, organism-based, Canis lupus familiaris; conditions: in vivo, time 0.083-24 hrs
[20] = Oral bioavailability in CD-1 mouse at 10 mg/kg measured at 0.083 to 24 hrs by LC-MS/MS analysis; type: ADME, organism-based; conditions: in vivo, time 0.083-24 hrs
[21] = Half life in Beagle dog at 10 mg/kg,po measured at 0.083 to 24 hrs post administration by LC-MS/MS analysis; type: ADME, organism-based, Canis lupus familiaris; conditions: in vivo, time 0.083-24 hrs

Cytochrome P450 2C19, sequence (P33261 whole entry): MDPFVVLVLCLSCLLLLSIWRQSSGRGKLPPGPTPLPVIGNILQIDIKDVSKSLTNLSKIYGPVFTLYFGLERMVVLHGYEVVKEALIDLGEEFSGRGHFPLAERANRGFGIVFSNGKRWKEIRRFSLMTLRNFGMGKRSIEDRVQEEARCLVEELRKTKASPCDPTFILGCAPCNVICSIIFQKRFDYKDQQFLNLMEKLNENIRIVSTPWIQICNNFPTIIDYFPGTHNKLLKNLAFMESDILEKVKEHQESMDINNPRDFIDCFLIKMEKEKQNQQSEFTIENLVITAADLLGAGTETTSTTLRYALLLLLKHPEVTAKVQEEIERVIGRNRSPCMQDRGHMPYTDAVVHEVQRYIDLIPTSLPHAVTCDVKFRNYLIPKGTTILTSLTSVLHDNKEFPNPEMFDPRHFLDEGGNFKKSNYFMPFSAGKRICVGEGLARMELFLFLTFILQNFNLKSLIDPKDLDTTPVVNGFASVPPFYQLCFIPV

Row | microsomal CLint at 0.3 µM [2] [µL/min/mg] | pIC50 (Cytochrome P450 2C19) | half-life [3] [h] | AUC(0-inf) [4] [ng·h/mL] | microsomal CLint at 0.3 µM [5] [µL/min/mg] | Cmax [7] [ng/mL] | pIC50 (Cytochrome P450 1A2) | pEC50 (Hepatitis B virus) | fraction unbound at 6 h, 2 µM [8] | Cmax [9] [ng/mL] | bioavailability [12] [%] | solubility kinetic at 24 h [13] [µM] | clearance [14] [mL/min/kg] | fraction unbound at 6 h, 2 µM [15] | pIC50 (Cytochrome P450 2B6) | fold change (FC) [17] | Cmax [19] [ng/mL] | bioavailability [20] [%] | SMILES | Activity [6] | Activity [11] [%] | other results
1 | 5 | < 4.60 | 1.2 | 10700 | 5 | 702 | < 4.60 | 7.92 | 0.14 | 2060 | 63 | > 200 | 20 | 0.2 | < 4.60 | < 0.1 | 3130 | 63 | COCCCOc1cc2c(cc1Cl)-c1cc(=O)c(C(=O)O)cn1[C@H](C(C)C)CO2 | 20% | 20 | half-life [1]: 1.4 h; Vd [10]: 1 L/kg; AUC ([16]; po, 10 mg/kg): 10300 ng·h/mL; F ([18]; po, 10 mg/kg): 14%; half-life [21]: 1.7 h
2 | 5 | < 4.60 | 2 | 13000 | 2 | 1840 | < 4.60 | 8.92 | 0.44 | 1500 | 110 | 190 (≈ 76.3 µg/mL) | 26 | 0.5 | < 4.60 | 0.6 | 4030 | 96 | COCCCOc1cc2c(cc1OC)-c1cc(=O)c(C(=O)O)cn1[C@H](C(C)C)C2 | 20% | 20 | t1/2 ([1]; iv, 2 mg/kg): 1.5 h; Vdss(app) ([10]; iv, 2 mg/kg): 1.7 L/kg; AUC(0-inf) [16]: 6720 ng·h/mL; bioavailability [18]: 28%; half-life [21]: 1.6 h

Row | SMILES | microsomal CLint at 0.3 µM [2] [µL/min/mg] | pIC50 (Cytochrome P450 2C19) | half-life [3] [h] | AUC(0-inf) [4] [ng·h/mL] | microsomal CLint at 0.3 µM [5] [µL/min/mg] | Cmax [7] [ng/mL] | pIC50 (Cytochrome P450 1A2) | pEC50 (Hepatitis B virus) | fraction unbound at 6 h, 2 µM [8] | Cmax [9] [ng/mL] | bioavailability [12] [%] | solubility kinetic at 24 h [13] [µM] | clearance [14] [mL/min/kg] | fraction unbound at 6 h, 2 µM [15] | pIC50 (Cytochrome P450 2B6) | fold change (FC) [17] | Cmax [19] [ng/mL] | bioavailability [20] [%] | Activity [6] | Activity [11] [%] | other results
3 | COCCCOc1cc2c(nc1OC)-c1cc(=O)c(C(=O)O)cn1[C@H](C(C)C)C2 | 2 | < 4.60 | 5.8 | 31500 | 3 | 1110 | < 4.60 | 9.00 | 0.5 | 2310 | 98 | > 200 | 30 | 0.46 | < 4.60 | 7.5 | 6740 | 99 | Non-Toxic | 20 | half-life [1]: 2.3 h; Vd [10]: 0.8 L/kg; AUC(0-inf) [16]: 14100 ng·h/mL; bioavailability [18]: 80%; half-life [21]: 2.8 h
